According to patent US20250002954A1, “Novel Compound, Use Thereof, and Method for Producing Same, and Compound-Containing Composition, Method for Producing 4-Trehalosamine, and Microorganism” (Microbial Chemistry Research Foundation, priority 2021, published 2025):

Key:
[1] = Measurement of critical micelle concentration (CMC) with CMC assay kit; assay type: physicochemical
Description: (§1) For the IMCTA-C8, IMCTA-C9, IMCTA-C10, IMCTA-C11, IMCTA-C12, IMCTA-C13, IMCTA-C14, and IMCTA-C15 (IMCTA-Cn) that were obtained in synthesis examples 1 to 8 and for n-dodecyl-β-D-maltoside (DDM) as control, “critical micelle concentration (CMC)”, “micelle size”, and “Hydrophilic-Lipophilic Balance (HLB) value” were measured or calculated in the following manner.
CMC was measured with a Detergent Critical Micelle Concentration (CMC) Assay Kit (CMC1000, manufactured by ProFoldin) according to the product protocol.

[2] = Measurement of micelle size by dynamic light scattering; assay type: physicochemical
Description: as §1
Micelle sizes were measured by dynamic light scattering with Zetasizer Nano S (manufactured by Malvern Panalytical).

[3] = test system: Mycobacterium smegmatis mc^2 (ATCC 700084); experiment: Staining of mycobacterium with IMCTA-fluorescein, IMCTA-biotin or IMCTA-azide; assay type: cell-based; conditions: for ingestion into bacterial cells and fluorescence (staining): 10 μg/mL IMCTA-fluorescein, 30 μg/mL IMCTA-biotin, 10 μg/mL IMCTA-azide, 37° C., 8 hours; for ingestion in the presence of sucrose (blocking): sucrose 1% or 3%
[4] = test system: human ovarian cancer cells OVK18 and human malignant melanoma cells Mewo; experiment: Autophagy inducing effect on cultured cells (western blotting of autophagy-related proteins); assay type: cell-based; conditions: for accumulation of PCD (precursors of cathepsin D) / concentration giving same or higher LC3-II expression, relative to trehalose / p62 / pAkt / phosphorylation of p70 S6K: 24 hours; for expression of LC3-II (autophagy marker): 24 hours treatment, western blotting
Description: Expression and phosphorylation patterns of autophagy-related proteins when human ovarian cancer cells or human malignant melanoma cells were treated with 4-trehalosamine and trehalose analog for 24 hours were determined by western blotting.
Human ovarian cancer cells OVK18 (obtained from RIKEN BRC) and human malignant melanoma cells Mewo (JCRB0066) were each inoculated on a 12-well microplate at 8×10^4 cells/mL/well and cultured in DMEM culture medium at 37° C. for 72 hours, after which they were treated with test samples.
The test samples used were the 4-trehalosamine (4TA) obtained in the <Purification process> of production example 10, trehalose (TRH), the IMCTA-Cn compounds obtained in synthesis examples 1 to 8, trehalose ester (TRH-Cn) (manufactured by Dojindo Laboratories), n-dodecyl-β-D-maltoside (DDM), maltose (MLT), sucrose (SCR), and rapamycin (RM). Untreated cells without addition of compounds were used as control.
In treatment with the test samples, in order to avoid contact of a compound with locally high concentration with cells, a half of the culture fluid in each well was taken, and a required amount of test sample was dissolved in it. After dissolving it sufficiently, it was returned to the original well and treated at 37° C. for 24 hours.
Subsequently, culture medium containing the test samples was removed, washed once with PBS, and dissolved with 2×SDS sample buffer not containing 2-mercaptoethanol (2-ME) or bromphenol blue (BPB). After measuring the protein concentration in the dissolved sample with a BCA protein assay kit (manufactured by Thermo Fisher Scientific), 2-ME and BPB were added and the sample was boiled for 5 minutes, which was used as a sample for western blotting.
The western blotting was performed in a similar manner to test example 4 except that anti-LC3 antibody, which is a marker for autophagy, anti-p62, anti-cathepsin D antibody, anti-Phospho-Akt (Ser473) antibody, anti-Akt antibody, anti-Phospho-p70 S6K (T389) antibody, and anti-p70 S6K antibody (all manufactured by Cell Signaling Technology) were used at 1/2,000 dilution as the primary antibodies in the method described in test example 4.
The results for human ovarian cancer cells OVK18 are shown in FIGS. 20A to 20C, and the results for human malignant melanoma cells Mewo are shown in FIGS. 20D to 20F. In FIGS. 20A, 20B, 20D, and 20E, “PCD” denotes precursors of cathepsin D and “CD-HC” denotes cathepsin D heavy chain.

[5] = test system: human ovarian cancer cells OVK18 and human malignant melanoma cells Mewo; experiment: LC3-II expression in combination with autophagy inhibitor (bafilomycin or chloroquine); assay type: cell-based; conditions: 50 mM 4-trehalosamine, 50 μM IMCTA-C14 or 100 mM trehalose 14 hours, then 200 nM BM or 100 μM CQ 4 hours
Description: As with the test example 10-1, human ovarian cancer cells OVK18 (obtained from RIKEN BRC) and human malignant melanoma cells Mewo (JCRB0066) were each inoculated on a 12-well microplate at 8×10^4 cells/mL/well, and cultured in DMEM culture medium at 37° C. for 72 hours. After that, a half of the culture fluid in each well was taken and each compound was dissolved so that the final concentration is 50 mM 4-trehalosamine, 50 μM IMCTA-C14, or 100 mM trehalose. After dissolving it sufficiently, the cells were returned to the original well and treated at 37° C. for 14 hours. Untreated cells without addition of the compounds were used as control.
After that, each autophagy inhibitor was added so that the final concentration is 200 nM bafilomycin (BM) or 100 μM chloroquine (CQ), and the cells were cultured at 37° C. for 4 hours. A group with no inhibitor added was cultured in a similar way. After culture, they were turned into samples for western blotting in a similar manner to test example 10-1.
The western blotting was performed in a similar manner to test example 4 except that anti-LC3 antibody (manufactured by Cell Signaling Technology) was used at 1/2,000 dilution as the primary antibody in the method described in test example 4. The results for human ovarian cancer cells OVK18 are shown in FIG. 21A, and the results for human malignant melanoma cells Mewo are shown in FIG. 21B.
Also, the results (graphs) of image analysis on the results of western blotting via Image J (manufactured by National Institutes of Health) are shown in FIGS. 21A and 21B (n=10, mean±S.D.). The vertical axis of the graph indicates the value of the amount of expression (expression amount ratio) of LC3-II for the groups with the different compounds added when the amount of expression of LC3-II in the control (untreated cells) is 1. […]

[6] = test system: aggregated proteins Q74 and SynA53T in SH-SY5Y cells and NH-12 cells; experiment: Elimination effect on aggregated protein in cells (Q74, SynA53T); assay type: cell-based, human; conditions: 100 mM 4-trehalosamine, 70 μM IMCTA-C14 or 100 mM trehalose, 14 hours; SH-SY5Y and NH-12 cells
Description: The effect of 4-trehalosamine or trehalose analog on Q74, which is partial peptide of huntingtin (Htt), the causal protein of Huntington's disease, and SynA53T, which is a mutation of α-synuclein, the causal protein of Parkinson's disease, (both aggregated proteins) was determined in the following manner.
Neuroblastoma cells SH-SY5Y (obtained from European Collection of Authenticated Cell Cultures (ECACC)) and human neuroblastoma cells NH-12 (obtained from RIKEN BRC) were each inoculated at 14×10^4 cells/mL and cultured in DMEM culture medium at 37° C. for 48 hours.
After the culture of SH-SY5Y cells and NH-12 cells, pEGFP-Q74 vector or EGFP-alphasynuclein-A53T (both obtained from addgene), which are expression vectors of aggregated protein, were transfected with transfection reagent (Viafect, manufactured by Promega). After 24 hours from the transfection, 100 mM 4-trehalosamine, 70 μM IMCTA-C14, or 100 mM trehalose was added and the cells were further treated for 14 hours. Untreated cells without addition of the compounds were used as control. After washing the cells three times with PBS, hyposmotic fluid (solution of one tablet of cOmplete, Mini, EDTA-free Protease Inhibitor Cocktail (CM, manufactured by Merck) in 50 mL of pure water) was added and the mixture was shaken on ice for 10 minutes. It was then centrifuged at 21,300×g for 10 minutes to be separated into soluble protein (Sol) and aggregated protein (Agg) […]. Thereafter, they were turned into samples for western blotting in a similar manner to test example 10-1.
The western blotting was performed in a similar manner to test example 4 except that anti-GFP antibody (manufactured by Proteintech) was used at 1/5,000 dilution and anti-LC3 antibody (manufactured by Cell Signaling Technology) was used at 1/2,000 dilution as the primary antibodies in the method described in test example 4. The results for neuroblastoma cells SH-SY5Y are shown in FIGS. 22A and 22B, and the results for human neuroblastoma cells NH-12 are shown in FIGS. 22C and 22D. […]

CCCCCCCCCCCCN[C@@H]1C(CO)O[C@H](O[C@H]2OC(CO)[C@@H](O)C(O)C2O)C(O)C1O (stereo partly drawn) [IMCTA-C12]
CMC [1]: 0.58 mM
Micelle size [2]: 13.7 ± 6.4 nm

CCCCCCCCN[C@@H]1C(CO)O[C@H](O[C@H]2OC(CO)[C@@H](O)C(O)C2O)C(O)C1O (stereo partly drawn) [IMCTA-C8]
CMC [1]: 8.02 mM
Micelle size [2]: 4.3 ± 1.7 nm

O=C(CCCC[C@@H]1SC[C@@H]2NC(=O)N[C@@H]21)N[C@@H]1C(CO)O[C@H](O[C@H]2OC(CO)[C@@H](O)C(O)C2O)C(O)C1O (stereo partly drawn) [IMCTA-biotin]
ingestion into bacterial cells and fluorescence (staining) [3]: ingested into Mycobacterium smegmatis bacterial cells and emitted fluorescence
staining pattern ([3]; fluorescence microscope): patch-like staining pattern
ingestion in the presence of sucrose (blocking) [3]: some suppression of ingestion by sucrose

CCCCCCCCCCCCCCCN[C@@H]1C(CO)O[C@H](O[C@H]2OC(CO)[C@@H](O)C(O)C2O)C(O)C1O (stereo partly drawn) [IMCTA-C15]
CMC [1]: 0.06 mM
Micelle size [2]: 92.5 ± 49 nm
accumulation of PCD (precursors of cathepsin D) [4]: no accumulation of PCD was observed
concentration giving same or higher LC3-II expression, relative to trehalose [4]: several thousand times lower than trehalose
p62 [4]: accumulation trend of p62
pAkt [4]: decreasing trend of pAkt
phosphorylation of p70 S6K [4]: p70 S6K was not dephosphorylated
expression of LC3-II (autophagy marker) [4]: particularly strong expression

CCCCCCCCCCCCCN[C@@H]1C(CO)O[C@H](O[C@H]2OC(CO)[C@@H](O)C(O)C2O)C(O)C1O (stereo partly drawn) [IMCTA-C13]
CMC [1]: 0.24 mM
Micelle size [2]: 17.3 ± 10.9 nm
accumulation of PCD (precursors of cathepsin D) [4]: no accumulation of PCD was observed
concentration giving same or higher LC3-II expression, relative to trehalose [4]: several thousand times lower than trehalose
p62 [4]: accumulation trend of p62
pAkt [4]: decreasing trend of pAkt
phosphorylation of p70 S6K [4]: p70 S6K was not dephosphorylated
expression of LC3-II (autophagy marker) [4]: particularly strong expression

CCCCCCCCCCCCO[C@@H]1O[C@H](CO)[C@@H](O[C@H]2O[C@H](CO)[C@@H](O)[C@H](O)[C@H]2O)[C@H](O)[C@H]1O [DDM, n-dodecyl-β-D-maltoside, reference compound]
CMC [1]: 0.23 mM
Micelle size [2]: 6.1 ± 0.1 nm

CCCCCCCCCN[C@@H]1C(CO)O[C@H](O[C@H]2OC(CO)[C@@H](O)C(O)C2O)C(O)C1O (stereo partly drawn) [IMCTA-C9]
CMC [1]: 3.84 mM
Micelle size [2]: 5.5 ± 1.3 nm

CCCCCCCCCCCCCCN[C@@H]1C(CO)O[C@H](O[C@H]2OC(CO)[C@@H](O)C(O)C2O)C(O)C1O (stereo partly drawn) [IMCTA-C14]
CMC [1]: 0.11 mM
Micelle size [2]: 16.5 ± 4.4 nm
accumulation of PCD (precursors of cathepsin D) [4]: no accumulation of PCD was observed
concentration giving same or higher LC3-II expression, relative to trehalose [4]: several thousand times lower than trehalose
p62 [4]: accumulation trend of p62
pAkt [4]: decreasing trend of pAkt
phosphorylation of p70 S6K [4]: p70 S6K was not dephosphorylated
expression of LC3-II (autophagy marker) [4]: particularly strong expression
expression of LC3-II in combination with bafilomycin (BM) or chloroquine (CQ) [5]: increased expression of LC3-II
aggregate of Q74 and aggregate of SynA53T [6]: significantly decreased

CCCCCCCCCCCN[C@@H]1C(CO)O[C@H](O[C@H]2OC(CO)[C@@H](O)C(O)C2O)C(O)C1O (stereo partly drawn) [IMCTA-C11]
CMC [1]: 0.96 mM
Micelle size [2]: 15.9 ± 6.5 nm

CCCCCCCCCCN[C@@H]1C(CO)O[C@H](O[C@H]2OC(CO)[C@@H](O)C(O)C2O)C(O)C1O (stereo partly drawn) [IMCTA-C10]
CMC [1]: 2.67 mM
Micelle size [2]: 5.9 ± 1.8 nm

[N-]=[N+]=N[C@@H]1C(CO)O[C@H](O[C@H]2OC(CO)[C@@H](O)C(O)C2O)C(O)C1O (stereo partly drawn) [IMCTA-azide, 4-azide-4-deoxy-trehalose]
ingestion into bacterial cells and fluorescence (staining) [3]: ingested into Mycobacterium smegmatis bacterial cells and emitted fluorescence
fluorescence strength compared among labelers ([3]; same amount of labeler): strongest fluorescence
ingestion in the presence of sucrose (blocking) [3]: suppression of ingestion was observed
ingestion in the presence of trehalose (blocking) ([3]; trehalose 1% or 3%): suppression of ingestion was observed
